{
  "source": "patent US12590954B2",
  "about": "“Neural stem cell-induced differential medium and induction differentiation method” (IREGENE THERAPEUTICS, CO., LTD., priority 2020, dated 2026)",
  "key": {"[1]": {"system": "Human pluripotent stem cells", "test": "Chemical induction of neural stem cells (neural rosette formation, cell morphology)", "format": "cell-based", "text": "Human pluripotent stem cells include embryonic pluripotent stem cells, such as the H19 cell line and human induced pluripotent stem cells. Wherein, the human induced pluripotent stem cells used in the present invention are obtained from the reprogramming of CD34^+ cells, which refers to “reprogramming culture medium and reprogramming induced pluripotent stem cell culture method” (the method in the patent ZL201910050800.7).\nHuman pluripotent stem cells are used to coat T25 cell culture flasks with Matrigel ([…] Technologies), and then placed in a 37° C. incubator for more than one hour after plating. Follow 1×10^6 Cells were seeded in T25 flasks for expansion and passage.\nFor neural induction, use 50 μg/mL poly-lysine (SIGMA, Cat. No.: P6407) to coat a 6-well culture plate, and incubate at 37° C. for more than 3 hours after plating; then use 5 μg/mL Laminin (SIGMA ALDRICH, Cat. No.: 12020) for further coat, and then place in a 37° C. incubator to incubate for more than 3 hours. When pluripotent stem cells reached 70% coverage, they were digested with EDTA at 37° C. for 5 min, and DMEM was used to stop cell digestion. Cells are washed and centrifuged at 2×10^5 the proportions of each flask and are re-seeded in T25 plates. Neural induction is performed using the medium of the present invention in combination with the neural inducing compound, and the medium is changed every day until the neural stem cell rosette is formed. […] Therefore, the single-molecule inducing method provided by this method can induce pluripotent stem cells to form neural rosette structures more efficiently and uniformly.\n(§1) From the above results, it is known that the differentiation is not complete under the low concentration condition, and many different types of cells can be seen. However, neural stem cells obtained in high concentration condition are easily differentiated and cell stress appears."}, "HLA-DR": {"system": "HLA-DR", "test": "Flow cytometry detection of HLA-DR antigens of induced neural stem cells", "format": "cell-based, human", "procedure": "The HLA-DR antigens of neural stem cells induced by LY2157299 were detected by flow cytometry. HLA-DR is an MHC class II molecule whose expression is critical for the antigen-presenting function of cells and plays a key role in adoptive immune responses. The induced neural stem cells obtained in Example 2 were digested with EDTA, washed with DPBS, centrifuged to remove the supernatant, and 10^6 Cells were resuspended in 100 μL of diluted primary antibody (CD45 PerCP, Abeam, Cat. No. ab157309; HLA-DR FITC, CST, Cat. No. 54126), incubated on ice for 1 hour in the dark, centrifuged to remove supernatant, and cells were resuspended in 500 μL of antibody dilution buffer (CST) and analyzed on a flow cytometer. Samples incubated without primary antibody were used as controls. The results are shown in FIG. 7, FIG. 7a is a negative control, FIG. 7b is the HLA-DR detection result of the neural stem cells obtained by LY2157299 induction."}, "neural stem cells [2]": {"system": "neural stem cells", "test": "Q-PCR of marker genes during induction from pluripotent stem cells to neural stem cells", "format": "cell-based, human", "conditions": "different concentrations of LY2157299", "procedure": "Transcriptional changes of different marker genes during induction from pluripotent stem cells to neural stem cells were detected by using Q-PCR. The induced pluripotent stem cells used in this example are neural stem cells derived by LY inducing method and LSB inducing method, respectively. Neural stem cells were prepared as described previously using Rneasy Mini or Micro Kit (QIAGEN) for total RNA extraction, in which […] RNA was used to synthesize cDNA with superscript III First-Strand Synthesis System (Invitrogen).\nSYBR Premix Ex Taq (TaKaRa) and Thermal Cycler Dice Real Time System TaKaRa) were used to perform labeling and reactions for Quantitative PCR, with beta-Actin as internal reference. All the above data were analyzed with the delta-Ct method. Each set of trials was tested using three sets of replicates, and variance statistics were performed.\nas §1"}, "[3]": {"system": "human induced pluripotent stem cells", "test": "Brain organoid formation and diameter", "format": "cell-based", "conditions": "12.5 μM LY2157299", "procedure": "Organoid culture was performed with human induced pluripotent stem cells. Organoid inducing medium was formulated as follows: NouvNeu basal medium supplemented with 12.5 μM […]. Induced pluripotent stem cells were digested to single cells by Accutase, seeded in 15-bottom-ultra-low attachment 96-well plates at a ratio of 9000 cells/[…] of brain organoid inducing medium per well. 10 μM ROCK inhibitor Y-27632 (Selleck, 51049) was added, and the cells were placed in a 37° C., 5% carbon dioxide cell incubator for 24 hours (Panasonic, model: MCO-18AC). Y-27632-free fresh organoid inducing medium was changed the following day until day 10. Day 10 the organoids were transferred to ultra-low-attachment 6-well plates and the medium was changed to NouvNeu001 basal medium supplemented with 2% B27 cell culture additive. The culture was conducted at 37° C. in a 5% CO2 cell culture incubator on a horizontal rotator at 80 rpm until day 120.\nThe control experiment was carried out according to the published method (Clair B et. al, Nat Methods. 2019, November; 16 (11): 1169-1175). N2B27 was used as the basic medium for organ like culture. […]\nOrganoids were photographed by Leica Dmi8. The brain organoids were photographed and their diameters were measured. […]"}, "[4]": {"system": "major histocompatibility complex (MHC) genes", "test": "Q-PCR detection of MHC genes of induced neural stem cells", "format": "cell-based", "conditions": "compared with human pluripotent stem cells", "text": "The major histocompatibility complex (MHC) genes of neural stem cells induced by LY2157299 was detected by Q-PCR method, and pluripotent stem cells (iPS) were used as control."}, "[5]": {"system": "Human pluripotent stem cells", "test": "CyQuant quantitative detection of cell viability during induction", "format": "cell-based", "procedure": "The Cyquant assay was used to perform the quantitative detection of cell viability, thus investigating the effect of LY2157299 on the physiological state of the cells during long-term culture of the cells; Among them, the LSB method was used as the control group. 96-well light-tight cell culture plates were coated; after the coating was complete, cells were seeded separately at 5×10^4 cell number per well and three sets of parallel replicates were set (the average of three sets was calculated as data) to repeat the procedure of example 2.1. Wherein, the culture procedures described previously were incubated at 37° C. with 5% CO2. Samples were taken on days 1, 5, 10, 15 and 20 for cell viability assay using CyQuant Kit (Invitrogen, cat. No: X12223). The aforementioned assay was operated according to the instructions with a Spectramax i3 Multi-Mode Microplate Reader (VWR, model number: ID3-STD) for data reading."}, "neural stem cells [6]": {"system": "neural stem cells", "test": "Directed differentiation of induced neural stem cells into neurons (immunofluorescence)", "format": "cell-based, human", "procedure": "The neural stem cells obtained by the LY inducing method in Example 2 were subjected to directed differentiation in NouvNeu001 basal medium. For neuronal differentiation, use 50 μg/mL polylysine (SIGMA ALDRICH, Cat. No.: P6407) to coat a 6-well culture plate, and place the plate in a 37° C. incubator and incubate for more than 3 hours until cells are seeded.\nThe neural stem cells obtained in example 2 were seeded at a density of 1×10^5 the ratio per flask was inoculated in T25 flasks, and 3 μM CHIR99021 (Selleck, Cat. No.: S2924), 10 μM SU5402 (Tocris, Cat. No.: 3300/1), 10 μM DAPT (Selleck, Cat. No.: 52215) were added to NouvNeu001 basal medium. Fresh medium was replaced every 3 days until day 21. The above cultures were incubated at 37° C. with 5% CO2.\nThe neural stem cells obtained in example 2 were seeded at a density of 1×10^5 the ratio per flask was inoculated in T25 flasks, and 1 μM Purmorphamine Sellek, Cat. No.: S3042) and […] TGF-β3 (Novoprotein, Cat. No.: CJ44) were added to NouvNeu001 basal medium to culture neural stem cells. Fresh medium was replaced every 3 days until day 30. The above cultures were incubated at 37° C. with 5% CO2.\nThe neural stem cells obtained in example 2 were seeded at a density of 1×10^5 the ratio per flask was inoculated in T25 flasks, and 0.5 μM retinyl acetate (SIGMA ALDRICH, Cat. No.: R7782) was added to NouvNeu001 basal medium. Fresh medium was replaced every 3 days until day 21. The above cultures were incubated at 37° C. with 5% CO2.\nAfter induction and differentiation, the cells were harvested and identified by immunofluorescence staining: cells were fixed with 4% paraformaldehyde at room temperature for 40 minutes, washed twice with DPBS buffer; then permeabilized with 0.1% Triton X-100 for 5 minutes, and buffered with DPBS The cells were then washed twice with DPBS buffer containing 10% horse serum and 0.1% Triton X-100 at 4° C. overnight; the cells were washed with DPBS buffer and then washed with 2% horse serum and 0:1% Triton X-100. […]"}, "[7]": {"test": "Freezing point osmometer: osmolality of the culture system", "format": "physicochemical", "procedure": "A fully automated freezing point osmometer (FM-8P, Shanghai Yida Instruments Co., Ltd.) was used to detect the effects of different concentrations of sodium chloride on the osmolality of the culture system, and the specific operations were enrolled in the product instructions (FM-8P, Shanghai Vida Instruments Co., Ltd.). The test results are detailed in FIG. 2a. […] However, when the concentration reached […], the osmolality of the culture system already exceeded the cell culture limit of 320 mOsm/kg."}},
  "note": "Entries after “also recorded” stand apart in the source; their conditions may differ.",
  "data": [
    {"molecule": "Cc1cccc(-c2nn3c(c2-c2ccnc4ccc(C(N)=O)cc24)CCC3)n1", "note": "[LY2157299, 4-(2-(6-methylpyridin-2-yl)-5,6-dihydro-4h-pyrrolo[1,2-b]pyrazol-3-yl) quinoline-6-carboxamide]", "values": [
      {"measurement": "cell population obtained by chemical induction", "setting": "[1]; 12.5 μM LY2157299", "result": "a uniform cell population"},
      {"measurement": "cell population obtained by chemical induction", "setting": "[1]; 25 μM LY2157299", "result": "a mixed population of neural cells was obtained"},
      {"measurement": "cell stress on chemical induction", "setting": "[1]; 25 μM LY2157299", "result": "cells showed signs of stress with intracellular vacuoles"},
      {"measurement": "cell population obtained by chemical induction", "setting": "[1]; 20 nm LY2157299", "result": "a mixed population of cells including neural cells was obtained"},
      {"measurement": "HLA-DR antigen expression of induced neural stem cells", "setting": "HLA-DR", "result": "do not express HLA-DR; also recorded: negative"},
      {"measurement": "Pax6 expression versus concentration (Q-PCR)", "setting": "neural stem cells [2]", "result": "positively correlated with Pax6 expression"},
      {"measurement": "apoptosis gene CASP3 versus concentration (Q-PCR)", "setting": "neural stem cells [2]", "result": "positively correlated with apoptosis"},
      {"measurement": "generation of cerebral organoids", "setting": "[3]", "result": "can induce the generation of cerebral organoids"},
      {"measurement": "expression of MHC associated genes in induced neural stem cells", "setting": "[4]", "result": "significantly lower than human induced pluripotent stem cells; also recorded: extremely low levels"},
      {"measurement": "number of neural cells induced (CyQuant)", "setting": "[5]; samples on days 1, 5, 10, 15 and 20, LSB method as control", "result": "more number of neural cells compared with LSB method"},
      {"measurement": "nociceptor neuron differentiation of induced neural stem cells: marker expression", "setting": "neural stem cells [6]; CHIR99021, SU5402, DAPT in NouvNeu001 until day 21", "result": "able to express the nociceptor neuronal markers SCN11A and Nestin"},
      {"measurement": "dopaminergic neuron differentiation of induced neural stem cells: marker expression", "setting": "neural stem cells [6]; Purmorphamine and TGF-β3 in NouvNeu001 until day 30", "result": "could express the mature dopaminergic neuron specific markers Tyrosine Hydroxylase (TH) and Pitx3"},
      {"measurement": "photoreceptor neuron differentiation of induced neural stem cells: marker expression", "setting": "neural stem cells [6]; retinyl acetate in NouvNeu001 until day 21", "result": "could express the photoreceptor neuronal markers OPSIN and CRX"}
    ]},
    {"molecule": "[Cl-].[Na+]", "note": "[sodium chloride]", "values": [
      {"measurement": "osmotic pressure of the culture system versus concentration", "setting": "[7]; different concentrations of sodium chloride", "result": "linear increase"},
      {"measurement": "osmolality of the culture system", "setting": "[7]; sodium chloride concentration 1 μg/mL", "result": "> 320", "unit": "mOsm/kg"}
    ]},
    {"molecule": "recombinant insulin: component of the basal medium", "values": [
      {"measurement": "rate of cell proliferation versus concentration (CyQuant)", "setting": "[5]; different concentrations, long-term culture", "result": "positively correlated with the rate of cell proliferation"}
    ]}
  ]
}
